Source: publication PMC7443318 (Journal of medicinal chemistry, 2020)
Entries after “also recorded” stand apart in the source; their conditions may differ.

What was measured:
mA3AR = target: T1, mA3AR (Mus musculus, UniProt Q61618)
T1 sequence (Q61618 1-319): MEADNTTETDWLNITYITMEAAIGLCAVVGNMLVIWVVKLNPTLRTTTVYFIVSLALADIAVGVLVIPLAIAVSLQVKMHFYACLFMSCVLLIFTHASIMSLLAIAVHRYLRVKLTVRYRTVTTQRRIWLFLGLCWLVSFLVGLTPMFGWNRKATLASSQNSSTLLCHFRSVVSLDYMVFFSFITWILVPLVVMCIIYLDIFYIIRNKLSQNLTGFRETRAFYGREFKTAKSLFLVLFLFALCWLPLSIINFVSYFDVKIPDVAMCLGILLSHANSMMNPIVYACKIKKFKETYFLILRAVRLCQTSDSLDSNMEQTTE

hA3AR [1] = target: T2, hA3AR (Homo sapiens, UniProt P0DMS8)
T2 sequence (P0DMS8 1-318): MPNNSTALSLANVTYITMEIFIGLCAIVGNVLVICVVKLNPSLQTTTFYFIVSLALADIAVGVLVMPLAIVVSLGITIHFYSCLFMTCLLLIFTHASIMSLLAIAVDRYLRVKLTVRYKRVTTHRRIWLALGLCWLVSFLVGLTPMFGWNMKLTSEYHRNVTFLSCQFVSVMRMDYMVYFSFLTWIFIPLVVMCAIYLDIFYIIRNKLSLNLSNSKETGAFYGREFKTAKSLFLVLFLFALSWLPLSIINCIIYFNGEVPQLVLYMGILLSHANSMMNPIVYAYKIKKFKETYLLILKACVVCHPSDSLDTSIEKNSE

[2] = tested on: 45 receptors, channels and transporters; test: Off-target screen in radioligand binding assays; settings: Table S1
[3] = tested on: wild-type C57BL/6 (WT) or A3AR-KO mice; test: Mouse model of A3AR-induced hypothermia; assay type: in vivo
hA3AR [4] = target: T2, hA3AR; settings: fixed concentration of 15 (10 μM), Figure 1C
[5] = target: translocator protein, TSPO (Rattus norvegicus, UniProt P16257); test: Off-target radioligand binding, TSPO
Chain of translocator protein, TSPO (P16257 whole entry): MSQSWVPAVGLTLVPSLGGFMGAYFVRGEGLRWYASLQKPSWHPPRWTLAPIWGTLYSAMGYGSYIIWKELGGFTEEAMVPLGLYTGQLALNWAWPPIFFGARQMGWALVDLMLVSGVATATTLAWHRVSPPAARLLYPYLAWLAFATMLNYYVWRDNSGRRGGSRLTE

With `Oc1ccc(CCNc2nc(C#Cc3ccccc3)nc3c2ncn3[C@H]2[C@H](O)[C@H](O)[C@@H]3C[C@@H]32)cc1` [Compound 10, (1R,2R,3S,4R,5S)-4-(6-((4-Hydroxyphenethyl)amino)-2-(phenylethynyl)-9H-purin-9-yl)bicyclo[3.1.0]hexane-2,3-diol] the “increase of mA3AR affinity compared to 8” value (mA3AR) was 6 fold.

In the case of `Oc1ccc(CCNc2nc(C#Cc3ccccc3)nc3c2ncn3[C@H]2[C@H](O)[C@H](O)[C@@H]3C[C@@H]32)cc1F` [Compound 11, (1R,2R,3S,4R,5S)-4-(6-((3-Fluoro-4-hydroxyphenethyl)amino)-2-(phenylethynyl)-9H-purin-9-yl)bicyclo[3.1.0]hexane-2,3-diol], the “increase of hA3AR affinity compared to 8” value (hA3AR [1]) is reported as 2 fold.

`COc1ccc(CCNc2nc(C#Cc3ccccc3)nc3c2ncn3[C@H]2[C@H](O)[C@H](O)[C@@H]3C[C@@H]32)cc1O` [Compound 14, (1R,2R,3S,4R,5S)-4-(6-((3-Hydroxy-4-methoxyphenethyl)amino)-2-(phenylethynyl)-9H-purin-9-yl)bicyclo[3.1.0]hexane-2,3-diol] was tested, and the “reduction of mA3AR affinity compared to 15” value (mA3AR) was 7 fold.

With `COc1cc(CCNc2nc(C#Cc3ccccc3)nc3c2ncn3[C@H]2[C@H](O)[C@H](O)[C@@H]3C[C@@H]32)ccc1O` [Compound 15, (1R,2R,3S,4R,5S)-4-(6-((4-Hydroxy-3-methoxyphenethyl)amino)-2-(phenylethynyl)-9H-purin-9-yl)bicyclo[3.1.0]hexane-2,3-diol] the “Interaction with other GPCRs” value [2] was “did not interact”, the “Effect of pretreatment on hypothermic effect of full agonist 39” value ([3]; 3 mg/kg or 10 mg/kg 15, 30 min prior to 39 (3 mg/kg)) was “did not significantly attenuate” and the “Effect on core body temperature (Tb)” value ([3]; 3 mg/kg, i.p., WT mice (Figure 2B)) was “only weak hypothermia”. The “Effect on core body temperature (Tb) in ADORA3−/− mice” value ([3]; 10 mg/kg, i.p., ADORA3−/− mice, versus WT (Figure 2A)) was “greatly attenuated”, the “Effect on core body temperature (Tb)” value ([3]; 10 mg/kg, i.p., wild-type C57BL/6 mice (Figure 2A)) was “lowered core body temperature” and the “Period over which in vivo agonism was maintained” value ([3]; mouse) was over 2 h. The “increase of hA3AR affinity compared to 8” value (hA3AR [1]) was ~ 2 fold, the “increase of mA3AR affinity compared to 8” value (mA3AR) was ~ 27 fold and the “Antagonism of hA3AR activation by Cl-IB-MECA 38 in cAMP assay” value (hA3AR [4]) was “greatly inhibited the activation of hA3AR by Cl-IB-MECA; also recorded: shifted the concentration-response curve of Cl-IB-MECA 38 rightward”.

`O[C@@H]1[C@H](O)[C@@H]2C[C@@H]2[C@H]1n1cnc2c(NCCc3cccc(Cl)c3)nc(C#Cc3ccc(Cl)s3)nc21` [Compound 26, (1R,2R,3S,4R,5S)-4-(6-((3-Chlorophenethyl)amino)-2-((5-chlorothiophen-2-yl)ethynyl)-9H-purin-9-yl)bicyclo[3.1.0]hexane-2,3-diol] showed a Ki [5] of about 350 nM.

In the case of `COc1cc(CCNc2nc(C#Cc3ccc(Cl)s3)nc3c2ncn3[C@H]2[C@H](O)[C@H](O)[C@@H]3C[C@@H]32)ccc1O` [Compound 29, (1R,2R,3S,4R,5S)-4-(2-((5-Chlorothiophen-2-yl)ethynyl)-6-((4-hydroxy-3-methoxyphenethyl)amino)-9H-purin-9-yl)bicyclo[3.1.0]hexane-2,3-diol], the “reduction of mA3AR affinity compared to 15” value (mA3AR) is reported as 4 fold.

For `O[C@@H]1[C@H](O)[C@@H]2C[C@@H]2[C@H]1n1cnc2c(N[C@H]3C[C@@H]3c3ccccc3)nc(C#Cc3ccc(Cl)s3)nc21` [Compound 31, (1R,2R,3S,4R,5S)-4-(2-((5-Chlorothiophen-2-yl)ethynyl)-6-(((1S,2R)-2-phenylcyclopropyl)amino)-9H-purin-9-yl)bicyclo[3.1.0]hexane-2,3-diol], the “reduction of hA3AR affinity by cyclopropyl constraint of the N6-2-phenylethyl moiety” value (hA3AR [1]; compared to N6-2-phenylethyl analogue) was ~ 10 fold.

`CNC(=O)[C@@]12C[C@@H]1[C@@H](n1cnc3c(NCc4cccc(Cl)c4)nc(C#Cc4ccc(F)c(F)c4)nc31)[C@H](O)[C@@H]2O` [Compound 39, (1S,2R,3S,4R,5S)-4-(6-((3-chlorobenzyl)amino)-2-((3,4-difluorophenyl)-ethynyl)-9H-purin-9-yl)-2,3-dihydroxy-N-methylbicyclo[3.1.0]hexane-1-carboxamide, reference compound] was tested, and the Hypothermic effect ([3]; 3 mg/kg, mice) was “pronounced hypothermic effect”.
